# According to publication PMC10184313, “Inhibition of Thiamine Diphosphate-Dependent Enzymes by Triazole-Based Thiamine Analogues” (ACS Medicinal Chemistry Letters, 2023):
# T1: E. coli OGDHc E1 (Escherichia coli, UniProt P0AFG3)
# T1 sequence (P0AFG3 1-933): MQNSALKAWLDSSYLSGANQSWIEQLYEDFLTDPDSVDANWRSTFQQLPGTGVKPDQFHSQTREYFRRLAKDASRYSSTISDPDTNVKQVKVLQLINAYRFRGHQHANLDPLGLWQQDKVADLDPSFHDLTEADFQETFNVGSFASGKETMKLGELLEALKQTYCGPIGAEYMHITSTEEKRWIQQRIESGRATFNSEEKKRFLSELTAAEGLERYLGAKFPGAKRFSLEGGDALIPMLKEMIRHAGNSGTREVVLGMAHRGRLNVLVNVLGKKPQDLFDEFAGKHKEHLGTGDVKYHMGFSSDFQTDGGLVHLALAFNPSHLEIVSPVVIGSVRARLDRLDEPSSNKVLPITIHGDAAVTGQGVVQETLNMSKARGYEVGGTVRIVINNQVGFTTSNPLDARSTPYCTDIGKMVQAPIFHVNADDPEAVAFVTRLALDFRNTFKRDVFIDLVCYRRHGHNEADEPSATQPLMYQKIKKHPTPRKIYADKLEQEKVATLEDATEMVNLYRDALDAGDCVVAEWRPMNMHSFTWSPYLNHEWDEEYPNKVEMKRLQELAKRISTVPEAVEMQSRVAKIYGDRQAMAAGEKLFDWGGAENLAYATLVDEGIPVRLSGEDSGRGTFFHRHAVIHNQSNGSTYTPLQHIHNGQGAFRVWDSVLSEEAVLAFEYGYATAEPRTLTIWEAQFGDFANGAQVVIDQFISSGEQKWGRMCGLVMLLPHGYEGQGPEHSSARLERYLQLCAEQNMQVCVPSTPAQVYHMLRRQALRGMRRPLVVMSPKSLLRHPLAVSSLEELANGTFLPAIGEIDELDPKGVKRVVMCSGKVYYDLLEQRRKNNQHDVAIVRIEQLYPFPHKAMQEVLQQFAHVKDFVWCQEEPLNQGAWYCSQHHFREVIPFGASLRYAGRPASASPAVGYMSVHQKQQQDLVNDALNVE
# T2: porcine PDHc E1 (Sus scrofa, UniProt P29804)
# T2 sequence (P29804 31-390): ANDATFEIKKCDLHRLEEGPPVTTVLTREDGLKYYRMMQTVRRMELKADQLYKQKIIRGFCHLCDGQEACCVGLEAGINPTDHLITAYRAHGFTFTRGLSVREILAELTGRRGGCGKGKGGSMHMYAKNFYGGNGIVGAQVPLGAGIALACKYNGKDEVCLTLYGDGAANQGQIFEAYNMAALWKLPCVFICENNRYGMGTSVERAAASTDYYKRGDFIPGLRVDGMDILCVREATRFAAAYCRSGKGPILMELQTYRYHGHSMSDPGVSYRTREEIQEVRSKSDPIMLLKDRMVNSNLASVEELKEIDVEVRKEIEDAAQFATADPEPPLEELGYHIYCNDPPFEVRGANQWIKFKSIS
# B1: A. viridans PO (Aerococcus viridans) (protein)
# chain: MSDNKINIGLAVMKILESWGADTIYGIPSGTLSSLMDAMGEEENNVKFLQVKHEEVGAMAAVMQSKFGGNLGVTVGSGGPGASHLINGLYDAAMDNIPVVAILGSRPQRELNMDAFQELNQNPMYDHIAVYNRRVAYAEQLPKLVDEAARMAIAKRGVAVLEVPGDFAKVEIDNDQWYSSANSLRKYEPIAPAAQDIDAAVELLNNSKRPVIYAGIGTMGHGPAVQELARKIKAPVITTGKNFETFEWDFEALTGSTYRVGWKPANETILEADTVLFAGSNFPFSEVEGTFRNVDNFIQIDIDPAMLGKRHHADVAILGDAGLAIDEILNKVDAVEESAWWTANLKNIANWREYINMLETKEEGDLQFYQVYNAINNHADEDAIYSIDVGNSTQTSIRHLHMTPKNMWRTSPLFATMGIAIPGGLGAKNTYPDRQVWNIIGDGAFSMTYPDVVTNVRYNMPVINVVFSNTEYAFIKNKYEDTNKNLFGVDFTDVDYAKIAEAQGAKGFTVSRIEDMDRVMAEAVAANKAGHTVVIDCKITQDRPIPVETLKLDSKLYSEDEIKAYKERYEAANLVPFREYLEAEGLESKYIK
# B2: Z. mobilis PDC (Zymomonas mobilis subsp. mobilis ZM4 = ATCC 31821) (protein)
# chain: MSYTVGTYLAERLVQIGLKHHFAVAGDYNLVLLDNLLLNKNMEQVYCCNELNCGFSAEGYARAKGAAAAVVTYSVGALSAFDAIGGAYAENLPVILISGAPNNNDHAAGHVLHHALGKTDYHYQLEMAKNITAAAEAIYTPEEAPAKIDHVIKTALREKKPVYLEIACNIASMPCAAPGPASALFNDEASDEASLNAAVEETLKFIANRDKVAVLVGSKLRAAGAEEAAVKFADALGGAVATMAAAKSFFPEENPHYIGTSWGEVSYPGVEKTMKEADAVIALAPVFNDYSTTGWTDIPDPKKLVLAEPRSVVVNGIRFPSVHLKDYLTRLAQKVSKKTGALDFFKSLNAGELKKAAPADPSAPLVNAEIARQVEALLTPNTTVIAETGDSWFNAQRMKLPNGARVEYEMQWGHIGWSVPAAFGYAVGAPERRNILMVGDGSFQLTAQEVAQMVRLKLPVIIFLINNYGYTIEVMIHDGPYNNIKNWDYAGLMEVFNGNGGYDSGAGKGLKAKTGGELAEAIKVALANTDGPTLIECFIGREDCTEELVKWGKRVAAANSRKPVNKLL
# notes: made in house
# What was measured:
# E. coli OGDHc E1 = target: T1, E. coli OGDHc E1; assay: E. coli OGDHc E1 inhibitory activity assay (DCPIP reduction); type: biochemical; conditions: E. coli OGDHc E1; read-out: KM(ThDP) OGDHc E1
# Experimental: E. coli OGDHc E1 inhibitory activity assay. E. coli OGDHc E1 was from our previous work 5 and had been donated by R. Frank. Its activity was determined by monitoring DCPIP reduction at 600 nm using a microplate reader (CLARIOstar) and conducted as described 1,2 with some modifications. The percentage inhibition of compounds against E. coli OGDHc E1 was assayed at a final concentration of 250 µM. The reaction buffer (50 mM KH 2PO4 and 2 mM MgCl 2, pH 7) contained 50 µM ThDP (or 125 µM in the competition assay), 0.5 mM DCPIP, and 6.7 mg/ml E. coli OGDHc E1. The reaction mixture was preincubated at 37 °C for 60 min, then reaction was initiated by adding α-ketoglutarate to a final concentration of 10 mM. To determine the IC 50, ThDP concentration was lowered to 30 µM, and inhibitor concentration was varied (2-1000 µM). Specific activity was calculated using the molar […]
# for the PDHc E1 assay. […] 5 […]
# porcine PDHc E1 = target: T2, porcine PDHc E1; assay: PDHc E1 inhibitory activity assay (DCPIP reduction); type: biochemical; conditions: porcine PDHc E1; read-out: KM(ThDP) PDHc E1
# Experimental: Enzyme assays – Methods and Results S1
# Ligand efficiencies – Calculations S3 […]
# Enzyme assays (Methods and Results)
# PDHc E1 inhibitory activity assay. Porcine PDHc E1 was purchased from Sigma. Its activity was […]
# determined by monitoring 2,6-dichlorophenolindophenol (DCPIP) reduction at 600 nm using a […]
# microplate reader (CLARIOstar) and conducted as described 1,2 with some modifications. The percentage inhibition of compounds against porcine PDHc E1 was assayed at a final concentration of 250 µM. The reaction buffer (50 mM KH 2PO4 and 1 mM MgCl 2, pH 7) contained 50 µM ThDP (or 125 µM in the competition assay), 0.25 mM DCPIP, and 2 mg/ml porcine PDHc E1. The reaction mixture […]
# was preincubated at 37 °C for 30 min, then the reaction was initiated by adding pyruvate to a final […]
# concentration of 50 mM. To determine the half-maximal inhibitory concentration (IC 50 ), ThDP […]
# concentration was lowered to 10 µM, and inhibitor concentration was varied (0.4-200 µM). Specific […]
# activity was calculated using the molar extinction coefficient of DCPIP, 21 mM -1 cm-1.3 The enzyme […]
# IC50 values were calculated from non-linear regression curve fitting using GraphPad Prism.
# [1] = tested on: P. falciparum 3D7 expressing PfTPK-GFP; set-up: method as in PMID 23804074; conditions: thiamine-free culture medium; ref [15]; cited from earlier work
# P. falciparum strain 3D7 = conditions: thiamine 2.97 μM vs absence of thiamine; ref [15]; cited from earlier work
# [2] = target: PDC from Zymomonas mobilis; set-up: method as in PMID 19082157, PMID 20099870; conditions: ref [8],[24]; cited from earlier work
# [3] = substrate: Cc1ncc(C[n+]2csc(CCO[P@](=O)(O)OP(=O)(O)O)c2C)c(N)n1; assay: A. viridans PO inhibitory activity assay (quinoneimine dye); type: biochemical, Aerococcus viridans; conditions: other: A. viridans PO; 37.0 °C
# Experimental: A. viridans PO inhibitory activity assay. A. viridans PO and horseradish peroxidase were purchased from Sigma. A. viridans PO activity was determined by monitoring appearance of quinoneimine dye at 550 nm using a microplate reader (CLARIOstar) and conducted as described 1 with some modifications.
# The percentage inhibition of compounds against A. viridans PO was assayed at a final concentration of 250 µM. The reaction buffer (50 mM KH 2PO4 and 10 mM MgCl 2, pH 5.9) contained 50 µM ThDP (or 125 µM in the competition assay), 10 µM flavin adenine dinucleotide (FAD), 0.15% 4-Aminoantipyrine, 0.3% N-Ethyl-N-(2-hydroxy-3-sulfopropyl)-m-toluidine (EHSPT), 50 µg/mL horseradish peroxidase and 0.35 U/mL A. viridans PO. The reaction mixture was preincubated at 37 °C for 30 min, then reaction was initiated by adding pyruvate to a final concentration of 50 mM. To determine the IC 50, inhibitor concentration was varied (2-1000 µM) with ThDP concentration at 50 µM. 1 unit of PO activity is defined as 1 μmol of hydrogen peroxide produced per minute. The enzyme IC 50 values were calculated as described for the PDHc E1 assay. […]
# [4] = substrate: Cc1ncc(C[n+]2csc(CCO[P@](=O)(O)OP(=O)(O)O)c2C)c(N)n1; assay: Z. mobilis PDC inhibitory activity assay (NADH consumption); type: biochemical, Zymomonas mobilis; conditions: pH 7.0; 37.0 °C
molecule,measurement,setting,value
"Cc1ncc(C[n+]2csc(CCO[P@](=O)(O)OP(=O)(O)O)c2C)c(N)n1 [ThDP, thiamine diphosphate]",Km,E. coli OGDHc E1,3 µM
same,Km,porcine PDHc E1,0.05 µM
"Cc1ncc(C[n+]2csc(CCO)c2C)c(O)n1 [Compound 7a, oxythiamine]","fold more sensitive, parasite over-expressing TPK vs parasite bearing an empty plasmid",[1],70 fold
same,fold increase of IC50 with added thiamine,P. falciparum strain 3D7,470 fold
Cc1ncc(Cn2cc(CCOP(=O)(O)OP(=O)(O)O)nn2)c(N)n1 [Triazole-ThDP 5],Ki,[2],0.03 nM
B1,Km,[3],5 µM
B2,Km,[4],0.35 µM
